Laboratory results reported in patent publication US8222229B2, “Peritoneal dialysis method” (Kowa Co., Ltd., priority 2002, dated 2012).

Tested on: HPMC (human peritoneal mesothelial cells)
Assay: HPMC viability under high level glucose, cell counting (WST-1)
Assay type: cell-based
Conditions: for effect on decrease in the viability of HPMC attributed to glucose (as measured by absorbance): preincubation 3 h with 0, 10, 100, 1,000 μM test substance, then 8 h in glucose 5.8 mM, 75 mM, 140 mM, WST-1
Procedure: Peritoneal mesothelial cells (HPMC) were preincubated for three hours in culture media (M199) containing ATP (0, 10, 100, and 1,000 μM). The cells were washed with an HPMC culture medium (saline buffer) and then incubated for eight hours in culture media (M199) containing glucose at three different levels (5.8 mM, 75 mM, and 140 mM). HPMC viability was obtained through cell counting (WST-1).
Instead of ATP, adenosine, which is a metabolite of ATP, was employed to study the effect of adenosine on decrease in HPMC viability caused by high level glucose.
Prior to the step of preincubation with ATP-containing culture media in the procedure of Example 1, HPMC were preincubated for 30 minutes with each of the following selective ATP receptor antagonists: (1) Suramin (P2X, P2Y receptor antagonist; 10 μM), (2) Reactive Blue 2 (P2Y receptor antagonist; 30 μM), and (3) PPADS (P2X receptor antagonist; 10 μM). Thereafter, the test was performed as described in Example 1.

Compound | ATP's effect on decrease in the viability of HPMC attributed to glucose after ATP receptor antagonist pretreatment (HPMC preincubated 30 min with Suramin 10 μM, Reactive Blue 2 30 μM or PPADS 10 μM before ATP preincubation, glucose 5.8, 75, 140 mM) | effect on decrease in the viability of HPMC attributed to glucose (as measured by absorbance)
Nc1ncnc2c1ncn2[C@@H]1O[C@H](COP(=O)(O)OP(=O)(O)OP(=O)(O)O)[C@@H](O)[C@H]1O [ATP, adenosine triphosphate] | no effect of alleviating reduction in HPMC viability | decrease in viability caused by high level glucose was significantly alleviated
Nc1ncnc2c1ncn2[C@@H]1O[C@H](CO)[C@@H](O)[C@H]1O [Adenosine, adenosine, reference compound] | – | no effect of alleviating decrease in HPMC viability
